Assay [1] has as its system cellules dendritiques générées in vitro à partir de précurseurs CD34+ issus de sang de cordon. As to the kind of experiment: Migration of hapten BB-sensitised in vitro generated dendritic/Langerhans cells through Matrigel in a two-compartment culture chamber. Format: cell-based. As to the method:
Des cellules mononuclées ont été obtenues à partir de sang de cordon ombilical de donneurs sains, par centrifugation sur Ficoll. Les cellules CD34+ ont ensuite été purifiées par immunosélection à l'aide d'anticorps spécifique et de billes magnétiques (Miltenyi Biotech, Allemagne). Les cellules CD34+ ont été cultivées en présence de GM-CSF (100 ng/ml), TNF-α (2,5 ng/ml) en RPMI additionné de 10% sérum de veau foetal, pendant 5 jours. L'addition de TGF-β1, facteur qui favorise la différenciation des cellules vers la voie cellules de Langerhans, a été réalisée au cinquième jour de culture.
Le milieu de base choisi pour l'ensemble de l'étude a été le RPMI 1640 (Gibco BRL, France). Le composé A fourni par EXPANSCIENCE, à la concentration de 10^-2 M en solution dans du DMSO (Diméthyl Sulfoxide), a été dilué en RPMI-1640 et testé à 1 µM.
Les cellules ont été traitées, au septième jour, par l'haptène BB (Base de Brandowski, 1,17 µg/ml), pendant 24 h, puis soumises au test de migration.
Un système de chambre de culture à deux compartiments (Falcon, Becton Dickinson, France) a été utilisé. Le compartiment supérieur est séparé du compartiment inférieur par une membrane de porosité 8 µm, sur laquelle sont déposées 50 µg/cm^2 de Matrigel. […]

Assay [2] concerns cellules de Langerhans (CL) et cellules dendritiques (CD). As to the kind of experiment: Migration of skin dendritic cells (FITC+) to draining lymph nodes in mice after topical FITC hapten application. Format: in vivo, souris. The note with it: 0,5% topical formulation on mouse ears twice daily for 4 days; 1,5% FITC; lymph nodes analysed 24 h later. From the text: Le FITC (Fluorescéine isothiocyanate, Sigma, St. Louis, MO) a été dilué extemporanément dans un mélange acétone: dibutylphthalate (1:1).
L'acide carbamique A (acide 1-Hydroxyméthyl-tridécyl carbamique) et le LU105 (LU 105 est un inhibiteur de MMPs, correspondant à un extrait peptidique de lupin blanc commercialisé par la Société Expanscience sous le nom de marque Actimp 193®) ont été fournis par les "Laboratoires Expanscience", et formulés seuls ou en association dans un véhicule inerte compatible avec une application topique tel que décrit à l'exemple 1 ci-dessus [Acide carbamique A (0,5%) ± LU105 (2%)]. Les différentes formulations ont été appliquées sur les oreilles de souris deux fois par jour pendant 4 jours consécutifs. Trois heures après la dernière application, 1,5% de FITC sont appliqués sur les deux oreilles (l'une traitée et l'autre non traitée (Contrôle)).
L'effet des deux molécules a été évalué in vivo chez la souris. La peau des deux oreilles est badigeonnée avec 1,5% FITC (2X5 µl). 24 h après, les souris sont sacrifiées et une suspension cellulaire est préparée à partir des ganglions auriculaires et cervicaux (ganglions drainants, ci-après dénommés GL) ou à partir des ganglions popliteaux (ganglions non drainants, contrôle négatif). Les tissus ont été découpés et les cellules sont séparées par filtration (filtre […], Falcon; Becton Dickinson), puis lavés. […]

Regarding `CCCCCCCCCCCCC(CO)NC(=O)O` (stereo not drawn) [Composé A, (1-Hydroxyméthyl-tridécyl)-acide carbamique], the “Pourcentage de cellules dendritiques générées in vitro ayant migré” value in assay [1] (1 µM, cells sensitised with hapten BB (1,17 µg/ml, 24 h), 18 h incubation at 37°C, BB-only control 20) was determined as 15%. Besides, the inhibition at 1 µM in assay [1] (read-out: inhibition de la migration des cellules dendritiques générées in vitro et activées par l'haptène BB) came out at 25%. In addition, in assay [2], the “Inhibition de la migration en %” value is 25%.

(Values after patent EP1565179B1, “COMPOSITION COMPRISING A CARBAMIC ACID DERIVATIVE, ITS USE AS COSMETIC AND MEDICINE” (Laboratoires Expanscience, priority 2002, dated 2004).)
